Here are results for three molecules from US20250221410A1, “SUBSTITUTED 2-C-AZINES AND SALTS THEREOF, AND USE THEREOF AS HERBICIDAL ACTIVE SUBSTANCES” (BAYER AKTIENGESELLSCHAFT, priority 2022, published 2025).

The structures appear in SMILES notation.

Assay [1] has as its system AMARE: Amaranthus retroflexus. Description: Post-emergence herbicidal efficacy at 80 g/ha, AMARE. The conditions noted are these: visual rating about 3 weeks after treatment vs untreated controls. It counts as in vivo. The method in brief:
(§1)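 Greenhouse plants grown in sandy loam were sprayed at the one-leaf stage, 2 to 3 weeks after sowing, with WP or EC formulations in water containing 0.5% additive at 600 l/ha. Visual rating against untreated controls came about 3 weeks later (100% = dead, 0% = as control).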

Assay [2] has as its system POLCO. Description: Post-emergence herbicidal efficacy at 80 g/ha, POLCO. It counts as in vivo, Polygonum convolvulus. The conditions noted are these: visual rating about 3 weeks after treatment vs untreated controls. Here is the method: Seeds of monocotyledonous and dicotyledonous weeds and crop plants were placed in sandy loam in plastic or organic planting pots, covered with soil and cultivated in a greenhouse under controlled growth conditions. 2 to 3 weeks after sowing, the test plants were treated at the one-leaf stage. The compounds of the invention, formulated in the form of wettable powders (WP) or as emulsion concentrates (EC), were then sprayed onto the green parts of the plants as aqueous suspension or emulsion with addition of 0.5% additive at a water application rate of 600 l/ha (converted). After the test plants had been kept in the greenhouse under optimum growth conditions for about 3 weeks, the activity of the preparations was rated visually in comparison to untreated controls. For example, 100% activity=the plants have died, 0% activity=like control plants. Tables B1 to B10 below show the effects of selected compounds of the general formula (I) according to Table 1 on various harmful plants and an application rate corresponding to 80 g/ha, which were obtained by the experimental procedure mentioned above.

Assay [3] concerns VERPE: Veronica persica. Kind of assay: Post-emergence herbicidal efficacy at 80 g/ha, VERPE. It counts as in vivo. Conditions: visual rating about 3 weeks after treatment vs untreated controls. The method in brief: as §1
The test system of assay [4] is AMARE: Amaranthus retroflexus. Description: Pre-emergence herbicide efficacy at 80 g/ha, AMARE. Format: in vivo. The conditions noted are these: scored visually after about 3 weeks. The gist of the method: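 Visual scoring against untreated controls after about 3 weeks gave percent activity, where 0% means growth like controls and 100% means plants died. Test compounds, as wettable powders or emulsion concentrates with 0.5% additive, were applied to the covering soil of freshly sown pots at a water rate equivalent to 600 l/ha.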

Assay [5] relates to VERPE: Veronica persica. Kind of assay: Pre-emergence herbicide efficacy at 80 g/ha, VERPE. Format: in vivo. Conditions: scored visually after about 3 weeks. The source says: (§2) Seeds of monocotyledonous and dicotyledonous weed plants and crop plants were placed in plastic or organic planting pots and covered with soil. The compounds of the invention, formulated in the form of wettable powders (WP) or as emulsion concentrates (EC), were then applied to the surface of the covering soil as aqueous suspension or emulsion with addition of 0.5% additive at a water application rate equivalent to 600 l/ha. After the treatment, the pots were placed in a greenhouse and kept under good growth conditions for the test plants. After about 3 weeks, the efficacy of the preparations was scored visually in comparison with untreated controls as percentages. For example, 100% activity=the plants have died, 0% activity=like control plants. Tables D1 to D12 below show the effects of selected compounds of the general formula (I) according to Table 1 on various harmful plants and an application rate corresponding to 80 g/ha, which were obtained by the experimental procedure mentioned above.

The test system of assay [6] is ABUTH: Abutilon theophrasti. Kind of assay: Post-emergence herbicidal efficacy at 1280 g/ha, ABUTH. Format: in vivo. Conditions: rated visually after about 3 weeks vs untreated controls, 100% = plants have died, 0% = like control plants. The method in brief:
(§3)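 Greenhouse pot test in sandy loam. Plants at the one-leaf stage, 2–3 weeks after sowing, were sprayed post-emergence with WP or EC formulations in water containing 0.5% additive, at 600 L/ha. Activity was scored visually about 3 weeks later against untreated controls (100% = dead, 0% = as control).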

For assay [7], the system named is ALOMY: Alopecurus myosuroides. Kind of assay: Post-emergence herbicidal efficacy at 1280 g/ha, ALOMY. Format: in vivo. Conditions: rated visually after about 3 weeks vs untreated controls, 100% = plants have died, 0% = like control plants. Here is the method: (§4) Seeds of mono- and dicotyledonous weed plants were placed in plastic pots in sandy loam soil (doubly sown with in each case one species of mono- or dicotyledonous weed plants per pot), covered with soil and cultivated in a greenhouse under controlled growth conditions. 2 to 3 weeks after sowing, the test plants were treated at the one-leaf stage. The compounds of the invention, formulated in the form of wettable powders (WP) or as emulsion concentrates (EC), were applied to the green parts of the plants as aqueous suspension or emulsion with addition of 0.5% additive at a water application rate equivalent to 600 litres per hectare. After the test plants had been kept in the greenhouse under optimum growth conditions for about 3 weeks, the activity of the preparations was rated visually in comparison to untreated controls. For example, 100% activity=the plants have died, 0% activity=like control plants. Tables A1 to A12 below show the effects of selected compounds of the general formula (I) according to Table 1 on various harmful plants and at an application rate corresponding to 1280 g/ha, which were obtained by the trial procedure specified above.

The subject of assay [8] is AMARE: Amaranthus retroflexus. Kind of assay: Post-emergence herbicidal efficacy at 1280 g/ha, AMARE. Format: in vivo. The conditions noted are these: rated visually after about 3 weeks vs untreated controls, 100% = plants have died, 0% = like control plants. The method in brief:
as §3

Assay [9] relates to DIGSA: Digitaria sanguinalis. Kind of assay: Post-emergence herbicidal efficacy at 1280 g/ha, DIGSA. It counts as in vivo. The conditions noted are these: rated visually after about 3 weeks vs untreated controls, 100% = plants have died, 0% = like control plants. The gist of the method: as §3
Assay [10] deals with ECHCG: Echinochloa crus-galli. Description: Post-emergence herbicidal efficacy at 1280 g/ha, ECHCG. It counts as in vivo. The conditions noted are these: rated visually after about 3 weeks vs untreated controls, 100% = plants have died, 0% = like control plants. The gist of the method:
as §3

For assay [11], the system named is KCHSC: Kochia scoparia. Description: Post-emergence herbicidal efficacy at 1280 g/ha, KCHSC. Format: in vivo. Conditions: visual rating about 3 weeks after treatment vs untreated controls. The gist of the method:
as §3

The subject of assay [12] is LOLRI: Lolium rigidum. Description: Post-emergence herbicidal efficacy at 1280 g/ha, LOLRI. Format: in vivo. The conditions noted are these: visual rating about 3 weeks after treatment vs untreated controls. Here is the method:
as §4

In assay [13] the test system is POAAN: Poa annua. Description: Post-emergence herbicidal efficacy at 1280 g/ha, POAAN. It counts as in vivo. Conditions: visual rating about 3 weeks after treatment vs untreated controls. The method in brief:
as §3

In assay [14] the test system is SETVI: Setaria viridis. Kind of assay: Post-emergence herbicidal efficacy at 1280 g/ha, SETVI. Format: in vivo. The conditions noted are these: visual rating about 3 weeks after treatment vs untreated controls. The method in brief:
as §3

The subject of assay [15] is STEME: Stellaria media. Kind of assay: Post-emergence herbicidal efficacy at 1280 g/ha, STEME. It counts as in vivo. Conditions: visual rating about 3 weeks after treatment vs untreated controls. The method in brief:
as §3

Assay [16] deals with VERPE: Veronica persica. Description: Post-emergence herbicidal efficacy at 1280 g/ha, VERPE. Format: in vivo. Conditions: visual rating about 3 weeks after treatment vs untreated controls. The method in brief:
as §3

Assay [17] relates to ABUTH: Abutilon theophrasti. Description: Pre-emergence herbicide efficacy at 1280 g/ha, ABUTH. It counts as in vivo. Conditions: visual scoring after about 3 weeks vs untreated controls. The method in brief:
(§5)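 Pre-em, sandy loam pots, seeds covered w/ soil. WP/EC formulation, aq. spray onto soil surface, 0.5% additive, 600 L/ha. Greenhouse ~3 wk; visual % vs untreated (0 = control, 100 = dead).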

The subject of assay [18] is AMARE: Amaranthus retroflexus. Description: Pre-emergence herbicide efficacy at 1280 g/ha, AMARE. Format: in vivo. Conditions: visual scoring after about 3 weeks vs untreated controls. The method in brief:
as §5

Assay [19] deals with DIGSA: Digitaria sanguinalis. Kind of assay: Pre-emergence herbicide efficacy at 1280 g/ha, DIGSA. Format: in vivo. Conditions: visual scoring after about 3 weeks vs untreated controls. The method in brief: as §5
Assay [20] relates to ECHCG: Echinochloa crus-galli. Description: Pre-emergence herbicide efficacy at 1280 g/ha, ECHCG. Format: in vivo. Conditions: visual scoring after about 3 weeks vs untreated controls. The method in brief: as §5
Assay [21] deals with KCHSC: Kochia scoparia. Description: Pre-emergence herbicide efficacy at 1280 g/ha, KCHSC. Format: in vivo. The conditions noted are these: visual scoring after about 3 weeks vs untreated controls. The gist of the method: as §5
In assay [22] the test system is MATIN: Matricaria inodora. Description: Pre-emergence herbicide efficacy at 1280 g/ha, MATIN. It counts as in vivo. Conditions: visual scoring after about 3 weeks vs untreated controls. The gist of the method: as §5
Assay [23] concerns POAAN: Poa annua. Kind of assay: Pre-emergence herbicide efficacy at 1280 g/ha, POAAN. It counts as in vivo. The conditions noted are these: visual scoring after about 3 weeks vs untreated controls. The method in brief:
as §5

Assay [24] concerns SETVI: Setaria viridis. Kind of assay: Pre-emergence herbicide efficacy at 1280 g/ha, SETVI. Conditions: visual scoring vs untreated controls. Format: in vivo. The gist of the method: as §5
Assay [25] relates to STEME: Stellaria media. Description: Pre-emergence herbicide efficacy at 1280 g/ha, STEME. Format: in vivo. Conditions: visual scoring vs untreated controls. The gist of the method:
as §5

The subject of assay [26] is VERPE: Veronica persica. Kind of assay: Pre-emergence herbicide efficacy at 1280 g/ha, VERPE. Conditions: visual scoring vs untreated controls. It counts as in vivo. The method in brief:
as §5

The test system of assay [27] is KCHSC: Kochia scoparia. Description: Pre-emergence herbicide efficacy at 80 g/ha, KCHSC. Format: in vivo. Conditions: scored visually after about 3 weeks.
Text: as §2

As to `O=S(=O)(CCC(F)(F)F)Oc1c(F)cccc1Cc1ncc(Cl)cn1` [Example 1-16], the “Post-emergence efficacy against AMARE” value in assay [1] is reported as 100%. Also, the “Post-emergence efficacy against POLCO” value in assay [2] is reported as 80%. Also, in [3], the “Post-emergence efficacy against VERPE” value is given as 90%. The “Pre-emergence efficacy against AMARE in %” value in [4] worked out at 100%. The “Pre-emergence efficacy against VERPE in %” value in assay [5] was 90%.

In the case of `Fc1ccc(Oc2c(F)cccc2Cc2ncc(Cl)cn2)cc1` [Example 1-35, 5-Chloro-2-[3-fluoro-2-(4-fluorophenoxy)benzyl]pyrimidine], the “Post-emergence efficacy at 1280 g/ha against ABUTH in %” value in assay [6] is given as 100%. The “Post-emergence efficacy at 1280 g/ha against ALOMY in %” value in assay [7] is 90%. Also, the “Post-emergence efficacy at 1280 g/ha against AMARE in %” value in assay [8] is 100%. For the same molecule, the “Post-emergence efficacy at 1280 g/ha against DIGSA in %” value in assay [9] is given as 90%. For the same molecule, the “Post-emergence efficacy at 1280 g/ha against ECHCG in %” value in [10] stood at 100%. The “Post-emergence efficacy against KCHSC” value in [11] worked out at 100%. Also, the “Post-emergence efficacy against LOLRI” value in assay [12] is 90%. The “Post-emergence efficacy against POAAN” value in [13] is 90%. For the same molecule, the “Post-emergence efficacy against SETVI” value in [14] turned out to be 90%. Moreover, in [15], the “Post-emergence efficacy against STEME” value amounted to 100%. Further, the “Post-emergence efficacy against VERPE” value in assay [16] is reported as 100%. In addition, the “Pre-emergence efficacy against ABUTH” value in assay [17] was determined as 90%. In [18], the “Pre-emergence efficacy against AMARE” value was 100%. Besides, the “Pre-emergence efficacy against DIGSA” value in [19] worked out at 90%. Further, the “Pre-emergence efficacy against ECHCG” value in assay [20] worked out at 90%. Moreover, the “Pre-emergence efficacy against KCHSC” value in [21] amounted to 100%. Moreover, in assay [22], the “Pre-emergence efficacy against MATIN” value is 90%. Further, in [23], the “Pre-emergence efficacy against POAAN” value turned out to be 90%. Moreover, the “Pre-emergence efficacy against SETVI in %” value in assay [24] was found to be 90%. Moreover, the “Pre-emergence efficacy against STEME in %” value in assay [25] came out at 100%. In addition, the “Pre-emergence efficacy against VERPE in %” value in assay [26] stood at 100%.

Consider `Clc1cnc(Cc2ccccc2Oc2ncc(Cl)cn2)nc1` [Example 1-50], for which the “Pre-emergence efficacy against AMARE in %” value in assay [4] is recorded as 90%. Moreover, the “Pre-emergence efficacy against KCHSC in %” value in assay [27] is recorded as 90%.
